Assay results reported in US20020137929A1, “1 - (3-heterocyclylphenyl) isothiourea, -isourea, -guanidine and -amidine herbicidal agents” (Intellectual Property Department, BASF Aktiengesellschaft, priority 1998, published 2002).

Tests used:
ORYSAT (Rice, Tebonnet) = assay: Postemergence herbicidal evaluation; assay type: in vivo, Oryza sativa, (L.) Tebonnet; conditions: postemergence
In short: (§1)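 Two-week-old seedlings sprayed with compound in 50/50 acetone/water plus 0.5% TWEEN 20, at about 0.0156 to 0.500 kg/ha, nozzle at 40 psi. Kept in greenhouse; rated visually 4-5 weeks after treatment on a 0-9 scale versus control, repeat tests averaged.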

CASOB (Sicklepod) [1] = assay: Preemergence herbicidal evaluation; assay type: in vivo, Cassia obtusifolia; conditions: rated 4-5 weeks after treatment
In short: (§2)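 Scores (0–9) reflect visual comparison with control plants for stand, vigor, malformation, size and chlorosis. Compound was applied to the soil after sowing, before emergence, as an aqueous acetone spray (about 0.0156–0.500 kg/ha), and cups were kept in a greenhouse for 4–5 weeks.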

ZEAMX (Corn, Field) = assay: Preemergence herbicidal evaluation; assay type: in vivo, Zea mays; conditions: rated 4-5 weeks after treatment
In short: as §2

CYPSE (Flatsedge) = assay: Preemergence weed control under flooded paddy conditions; assay type: in vivo, Cyperus serotinus; conditions: rated 3-4 weeks after treatment
In short: (§3)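 First, seeds or propagules go into the top 0.5 cm of silt loam; next, water is held 1.5 to 3 cm over the soil; then compound (50/50 acetone/water) is pipetted into it at about 0.0313 to 0.500 kg/ha; finally plants are rated visually 0-9 after three to four weeks.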

SETVI (Foxtail, Green) = assay: Postemergence herbicidal evaluation; assay type: in vivo, Setaria viridis; conditions: postemergence
In short: as §1

[2] = tested on: GLXMAW (Soybean, Williams); assay: Postemergence herbicidal evaluation; assay type: in vivo, Glycine max, (L.) Merr. cv Williams; conditions: postemergence
In short: as §1

[3] = tested on: SAGPY (Arrowhead (Pygmaea)); assay: Preemergence weed control under flooded paddy conditions; assay type: in vivo, Sagittaria pygmaea; conditions: rated 3-4 weeks after treatment
In short: as §3

AMBEL (Ragweed, Common) = assay: Postemergence herbicidal evaluation; assay type: in vivo, Ambrosia artemisifolia; conditions: postemergence
In short: as §1

[4] = tested on: CHEAL (Lambsquarters, Common); assay: Postemergence herbicidal evaluation; assay type: in vivo, Chenopodium album; conditions: postemergence
In short: as §1

CYPIR (Rice Flatsedge) = assay: Preemergence weed control under flooded paddy conditions; assay type: in vivo, Cyperus iria; conditions: rated 3-4 weeks after treatment
In short: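 Silt loam, seeds in top 0.5 cm; flood held 1.5-3 cm; test cpd as acetone/water 50/50 into flood water, ~0.0313-0.500 kg/ha a.i.; greenhouse 3-4 wk; visual 0-9 score vs control.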

CASOB (Sicklepod) [5] = assay: Postemergence herbicidal evaluation; assay type: in vivo, Cassia obtusifolia; conditions: postemergence
In short: as §1

GALAP (Galium) [6] = assay: Preemergence herbicidal evaluation; assay type: in vivo, Galium aparine; conditions: rated 4-5 weeks after treatment
In short: as §2

ECHCG (Barnyardgrass) = assay: Postemergence herbicidal evaluation; assay type: in vivo, Echinochloa crus-galli; conditions: postemergence
In short: as §1

GALAP (Galium) [7] = assay: Postemergence herbicidal evaluation; assay type: in vivo, Galium aparine; conditions: postemergence
In short: as §1

[8] = rate 0.0313 kg/ha, rating scale 0-9
[9] = rate 0.0625 kg/ha, rating scale 0-9
[10] = rate 0.1250 kg/ha, rating scale 0-9
[11] = rate 0.2500 kg/ha, rating scale 0-9

What does the source list for `Cc1ccccc1CN1C(=O)CSC1=Nc1cc(-n2c(=O)cc(C(F)(F)F)n(C)c2=O)c(F)cc1Cl` [Compound 129, 3-{4-Chloro-2-fluoro-5-{[3-(o-methylbenzyl)-4-oxo-2-thiazolidinylidene]amino}phenyl}-1-methyl-6-(trifluoromethyl)-2,4 (1H,3H)-pyrimidinedione]?
Herbicidal rating ORYSAT (ORYSAT (Rice, Tebonnet); rate 0.0156 kg/ha): 2.5; Herbicidal rating ORYSAT (ORYSAT (Rice, Tebonnet); rate 0.0313 kg/ha): 3.5; Herbicidal rating ORYSAT (ORYSAT (Rice, Tebonnet); rate 0.0625 kg/ha): 3.0; Preemergence herbicidal rating CASOB (CASOB (Sicklepod) [1]; rate 0.0156 kg/ha): 1.0; Preemergence herbicidal rating CASOB (CASOB (Sicklepod) [1]; rate 0.0313 kg/ha): 1.0; Preemergence herbicidal rating CASOB (CASOB (Sicklepod) [1]; rate 0.0625 kg/ha): 1.0; Preemergence herbicidal rating CASOB (CASOB (Sicklepod) [1]; rate 0.1250 kg/ha): 7.0; Preemergence herbicidal rating CASOB (CASOB (Sicklepod) [1]; rate 0.2500 kg/ha): 8.0; Preemergence herbicidal rating ZEAMX (ZEAMX (Corn, Field); rate 0.0156 kg/ha): 0.0; Preemergence herbicidal rating ZEAMX (ZEAMX (Corn, Field); rate 0.0313 kg/ha): 0.0; Preemergence herbicidal rating ZEAMX (ZEAMX (Corn, Field); rate 0.0625 kg/ha): 0.0; Preemergence herbicidal rating ZEAMX (ZEAMX (Corn, Field); rate 0.1250 kg/ha): 1.0; Preemergence herbicidal rating ZEAMX (ZEAMX (Corn, Field); rate 0.2500 kg/ha): 1.0; herbicidal effect rating, CYPSE (CYPSE (Flatsedge); 0.1250 kg/ha): 7.0; herbicidal effect rating, CYPSE (CYPSE (Flatsedge); 0.2500 kg/ha): 9.0; Herbicidal rating SETVI (SETVI (Foxtail, Green); rate 0.0156 kg/ha): 2.0; Herbicidal rating SETVI (SETVI (Foxtail, Green); rate 0.0313 kg/ha): 3.0; Herbicidal rating SETVI (SETVI (Foxtail, Green); rate 0.0625 kg/ha): 5.0; Herbicidal rating GLXMAW ([2]; rate 0.0156 kg/ha): 5.0; Herbicidal rating GLXMAW ([2]; rate 0.0313 kg/ha): 5.0; Herbicidal rating GLXMAW ([2]; rate 0.0625 kg/ha): 6.0; herbicidal effect rating, SAGPY ([3]; 0.0313 kg/ha): 0.0; herbicidal effect rating, SAGPY ([3]; 0.0625 kg/ha): 0.0; herbicidal effect rating, SAGPY ([3]; 0.1250 kg/ha): 2.0; herbicidal effect rating, SAGPY ([3]; 0.2500 kg/ha): 7.0; Herbicidal rating AMBEL (AMBEL (Ragweed, Common); rate 0.0156 kg/ha): 9.0; Herbicidal rating AMBEL (AMBEL (Ragweed, Common); rate 0.0313 kg/ha): 9.0; Herbicidal rating AMBEL (AMBEL (Ragweed, Common); rate 0.0625 kg/ha): 9.0; Herbicidal rating CHEAL ([4]; rate 0.0156 kg/ha): 5.0; Herbicidal rating CHEAL ([4]; rate 0.0313 kg/ha): 9.0; Herbicidal rating CHEAL ([4]; rate 0.0625 kg/ha): 9.0; herbicidal effect rating, CYPIR (CYPIR (Rice Flatsedge); 0.0313 kg/ha): 4.0; herbicidal effect rating, CYPIR (CYPIR (Rice Flatsedge); 0.0625 kg/ha): 5.0; herbicidal effect rating, CYPIR (CYPIR (Rice Flatsedge); 0.1250 kg/ha): 7.0; herbicidal effect rating, CYPIR (CYPIR (Rice Flatsedge); 0.2500 kg/ha): 9.0; Herbicidal rating CASOB (CASOB (Sicklepod) [5]; rate 0.0156 kg/ha): 3.0; Herbicidal rating CASOB (CASOB (Sicklepod) [5]; rate 0.0313 kg/ha): 4.0; Herbicidal rating CASOB (CASOB (Sicklepod) [5]; rate 0.0625 kg/ha): 4.0; Preemergence herbicidal rating GALAP (GALAP (Galium) [6]; rate 0.0156 kg/ha): 1.0; Preemergence herbicidal rating GALAP (GALAP (Galium) [6]; rate 0.0313 kg/ha): 1.0; Preemergence herbicidal rating GALAP (GALAP (Galium) [6]; rate 0.0625 kg/ha): 1.0; Preemergence herbicidal rating GALAP (GALAP (Galium) [6]; rate 0.1250 kg/ha): 0.0; Preemergence herbicidal rating GALAP (GALAP (Galium) [6]; rate 0.2500 kg/ha): 0.0; Herbicidal rating ECHCG (ECHCG (Barnyardgrass); rate 0.0156 kg/ha): 1.0; Herbicidal rating ECHCG (ECHCG (Barnyardgrass); rate 0.0313 kg/ha): 2.0; Herbicidal rating ECHCG (ECHCG (Barnyardgrass); rate 0.0625 kg/ha): 3.0; Herbicidal rating GALAP (GALAP (Galium) [7]; rate 0.0156 kg/ha): 2.0; Herbicidal rating GALAP (GALAP (Galium) [7]; rate 0.0313 kg/ha): 4.0; Herbicidal rating GALAP (GALAP (Galium) [7]; rate 0.0625 kg/ha): 4.0

Which results are given for `Cn1c(C(F)(F)F)cc(=O)n(-c2cc(N=C3SCC(=O)N3Cc3ccccn3)c(Cl)cc2F)c1=O` [Compound 131]?
Herbicidal rating ORYSAT (ORYSAT (Rice, Tebonnet); rate 0.0156 kg/ha): 2.0; Herbicidal rating ORYSAT (ORYSAT (Rice, Tebonnet); rate 0.0313 kg/ha): 2.5; Herbicidal rating ORYSAT (ORYSAT (Rice, Tebonnet); rate 0.0625 kg/ha): 3.0; Preemergence herbicidal rating CASOB (CASOB (Sicklepod) [1]; [8]): 0.0; Preemergence herbicidal rating CASOB (CASOB (Sicklepod) [1]; [9]): 0.0; Preemergence herbicidal rating CASOB (CASOB (Sicklepod) [1]; [10]): 0.0; Preemergence herbicidal rating CASOB (CASOB (Sicklepod) [1]; [11]): 2.0; Preemergence herbicidal rating ZEAMX (ZEAMX (Corn, Field); [8]): 0.0; Preemergence herbicidal rating ZEAMX (ZEAMX (Corn, Field); [9]): 0.0; Preemergence herbicidal rating ZEAMX (ZEAMX (Corn, Field); [10]): 0.0; Preemergence herbicidal rating ZEAMX (ZEAMX (Corn, Field); [11]): 0.0; herbicidal effect rating, CYPSE (CYPSE (Flatsedge); 0.1250 kg/ha): 0.0; herbicidal effect rating, CYPSE (CYPSE (Flatsedge); 0.2500 kg/ha): 0.0; Herbicidal rating SETVI (SETVI (Foxtail, Green); rate 0.0156 kg/ha): 3.0; Herbicidal rating SETVI (SETVI (Foxtail, Green); rate 0.0313 kg/ha): 4.0; Herbicidal rating SETVI (SETVI (Foxtail, Green); rate 0.0625 kg/ha): 5.0; Herbicidal rating GLXMAW ([2]; rate 0.0156 kg/ha): 4.5; Herbicidal rating GLXMAW ([2]; rate 0.0313 kg/ha): 5.0; Herbicidal rating GLXMAW ([2]; rate 0.0625 kg/ha): 5.5; herbicidal effect rating, SAGPY ([3]; 0.1250 kg/ha): 0.0; herbicidal effect rating, SAGPY ([3]; 0.2500 kg/ha): 2.0; Herbicidal rating AMBEL (AMBEL (Ragweed, Common); rate 0.0156 kg/ha): 7.0; Herbicidal rating AMBEL (AMBEL (Ragweed, Common); rate 0.0313 kg/ha): 9.0; Herbicidal rating AMBEL (AMBEL (Ragweed, Common); rate 0.0625 kg/ha): 9.0; Herbicidal rating CHEAL ([4]; rate 0.0156 kg/ha): 3.0; Herbicidal rating CHEAL ([4]; rate 0.0313 kg/ha): 5.0; Herbicidal rating CHEAL ([4]; rate 0.0625 kg/ha): 9.0; herbicidal effect rating, CYPIR (CYPIR (Rice Flatsedge); 0.1250 kg/ha): 0.0; herbicidal effect rating, CYPIR (CYPIR (Rice Flatsedge); 0.2500 kg/ha): 4.0; Herbicidal rating CASOB (CASOB (Sicklepod) [5]; rate 0.0156 kg/ha): 1.0; Herbicidal rating CASOB (CASOB (Sicklepod) [5]; rate 0.0313 kg/ha): 1.0; Herbicidal rating CASOB (CASOB (Sicklepod) [5]; rate 0.0625 kg/ha): 3.0; Preemergence herbicidal rating GALAP (GALAP (Galium) [6]; [8]): 0.0; Preemergence herbicidal rating GALAP (GALAP (Galium) [6]; [9]): 3.0; Preemergence herbicidal rating GALAP (GALAP (Galium) [6]; [10]): 2.0; Preemergence herbicidal rating GALAP (GALAP (Galium) [6]; [11]): 9.0; Herbicidal rating ECHCG (ECHCG (Barnyardgrass); rate 0.0156 kg/ha): 2.0; Herbicidal rating ECHCG (ECHCG (Barnyardgrass); rate 0.0313 kg/ha): 2.0; Herbicidal rating ECHCG (ECHCG (Barnyardgrass); rate 0.0625 kg/ha): 2.0; Herbicidal rating GALAP (GALAP (Galium) [7]; rate 0.0156 kg/ha): 1.0; Herbicidal rating GALAP (GALAP (Galium) [7]; rate 0.0313 kg/ha): 3.0; Herbicidal rating GALAP (GALAP (Galium) [7]; rate 0.0625 kg/ha): 3.0
